Tests used:
E. coli RecA protein = target: T1, E. coli RecA protein (Escherichia coli, UniProt P0A7G6); experiment: RecA ATPase luciferase assay; format: biochemical; details: compounds of FIGS. 2A and 2B
T1 construct: purchased New England Biolabs
Description: RecA is a DNA-dependent ATPase (i.e., it catalyzes the reaction adenosine triphosphate [ATP]→adenosine diphosphate [ADP]). An assay was developed for RecA ATPase activity based on detection of the amount of ATP remaining in a reaction mixture following incubation of RecA protein, DNA, and ATP. In the assay, E. coli RecA protein is incubated in reaction buffer with DNA, ATP, and any test compound or compounds for a measured amount of time. The quantity of ATP remaining after the RecA reaction is quantitated using a subsequent luciferase assay. The amount of ATP remaining can be compared to controls containing either a known inhibitor (full inhibition control) or no test compound (full activity control).
Kinase glo, Adenosine triphosphate, Adenosine 5′-O-(3-thiotriphosphate) plus and 384 well plates were obtained from Fisher, M13mp18 Single-stranded DNA, RecA protein, and T4 polynucleotide kinase reaction buffer (70 mM Tris-HCl pH7.5; 10 mM MgCl2; 5 mM DTT) were obtained from New England Biolabs.
Final reaction mixture contains: 0.5 μl of M13 single stranded DNA (250 μg/ml); 1.0 μl of 10×PHK buffer; 0.25 μl of RecA (2 mg/ml); 0.25 μl of 1 mM ATP; 0.25 μl of test compound in DMSO; and 12.0 μl of H2O.
Test compounds are incubated at room temperature in the presence of RecA protein and DNA prior to addition of ATP. This can be achieved by the preparation of two mixes, as indicated below. Desirably, both a no-DNA and a DNA/DMSO-only (i.e., no test compound) control were included.
The following steps are then performed: (1) Add 7.75 μl of mix 1 to the well of a 384 well plate; (2) Add 0.5 μl of the compound of interest; (3) Incubate at room temperature for 5 minutes; (4) Add 2.5 μl of the ATP mix. Incubate at room temperature for 30 minutes; (5) Add 12.5 μl of Promega Kinase glo plus; (6) Incubate at room temp for 10 minutes or more; and (7) Measure luminescence of the reaction.
Tested compounds were obtained from Boston University (1205 compounds from CMLD diversity library, available from Dr. Scott Schauss), IndoFine (66 compounds based on flavone structure), ChemdiV (48 compounds known to be ATPase inhibitors and 720 compounds structurally related to CB101 (described, for example, in U.S. Ser. No. 60/662,038), and Asinex. Five (5) tested compounds were bisflavones and 28 were predicted, based on structural modeling (see, for example, Example 20) to dock with Rec A. Many of the compounds are lipophilic, natural-product-like compounds. Others are flavones, bisflavones, flavonoids, coumarins, and/or heterocyclic compounds.
Percent inhibition is calculated according to the following equation:
[formula] A value of “−1” indicates higher than 50 μg/ml, therefore undetermined

S. aureus cells = experiment: Mutation/resistance assay (resistance to ciprofloxacin); format: cell-based
Description: This assay measures the rate at which mutant cells arise in the presence of an antibiotic agent. Cells are grown in the presence of antibiotic agent at a concentration above (generally well above, e.g., 4× or 8×) its MIC, and further in the presence or absence of a test agent (that may inhibit or enhance mutation).
Every 24 hours, an aliquot is removed from the culture and is diluted so that the antibiotic agent is no longer present at a concentration above its MIC (e.g., so that the antibiotic agent is present at 0.5×MIC or less). These aliquoted samples are then assayed to determine whether they can grow in the presence of the antibiotic agent. Specifically, when growth is observed in the presence of antibiotic agent at a concentration that is 4×MIC, then resistance is said to have developed. Test compounds can therefore be assayed to assess whether or not they can reduce the incidence of resistance (e.g., by inhibiting mutation).
These aliquoted samples were then assayed to determine whether they can grow in the presence of ciprofloxacin. […]

[1] = system: S. aureus strain S3 (ISP 794); experiment: Cell-based survival assay, S. aureus strain S3 (RecA+); details: 1 μg/ml ciprofloxacin + 25 μg/ml hinokiflavone, 16 hour time point

T1 sequence (P0A7G6 2-353): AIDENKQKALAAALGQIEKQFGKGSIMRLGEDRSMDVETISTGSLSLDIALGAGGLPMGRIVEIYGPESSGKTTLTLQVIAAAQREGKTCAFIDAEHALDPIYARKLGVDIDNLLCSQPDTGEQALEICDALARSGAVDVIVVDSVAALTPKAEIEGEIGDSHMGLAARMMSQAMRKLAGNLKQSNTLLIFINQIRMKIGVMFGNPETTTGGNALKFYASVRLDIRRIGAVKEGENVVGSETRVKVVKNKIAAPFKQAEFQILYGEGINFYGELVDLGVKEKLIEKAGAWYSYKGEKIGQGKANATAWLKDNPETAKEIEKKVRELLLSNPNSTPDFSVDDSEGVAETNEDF

## O=c1c(O)c(-c2ccc(O)cc2)oc2cc(O)ccc12 [3,7,4′-trihydroxyflavone]
E. coli RecA protein
  activity in RecA ATPase screen: particularly active

## O=c1cc(-c2ccc(O)cc2)oc2cc(O)c(O)c(O)c12 [6-hydroxy-apigenin]
E. coli RecA protein
  activity in RecA ATPase screen: particularly active

## O=c1cc(-c2ccc(O)cc2)oc2cc(O[C@@H]3O[C@H](CO)[C@@H](O)[C@H](O)[C@H]3O)cc(O)c12 [apigenin-7-O-glucoside]
E. coli RecA protein
  activity in RecA ATPase screen: particularly active

## O=c1cc(-c2ccc(O)cc2)oc2cc(O)cc(O)c12 [apigenin]
E. coli RecA protein
  activity in RecA ATPase screen: particularly active

## O=C(O)c1cn(C2CC2)c2cc(N3CCNCC3)c(F)cc2c1=O [ciprofloxacin, reference compound]
S. aureus cells; culture grown 0 days in 4×MIC ciprofloxacin, −Hinokiflavone
  Number of Wells in which Growth Observed in Presence of Ciprofloxacin at 4 × MIC: 0
S. aureus cells; culture grown 1 day in 4×MIC ciprofloxacin, −Hinokiflavone
  Number of Wells in which Growth Observed in Presence of Ciprofloxacin at 4 × MIC: 1
S. aureus cells; culture grown 5 days in 4×MIC ciprofloxacin, −Hinokiflavone
  Number of Wells in which Growth Observed in Presence of Ciprofloxacin at 4 × MIC: 2
S. aureus cells; culture grown 6 days in 4×MIC ciprofloxacin, −Hinokiflavone
  Number of Wells in which Growth Observed in Presence of Ciprofloxacin at 4 × MIC: 2
S. aureus cells; culture grown 7 days in 4×MIC ciprofloxacin, −Hinokiflavone
  Number of Wells in which Growth Observed in Presence of Ciprofloxacin at 4 × MIC: 3
S. aureus cells; culture grown 10 days in 4×MIC ciprofloxacin, −Hinokiflavone
  Number of Wells in which Growth Observed in Presence of Ciprofloxacin at 4 × MIC: 11

## O=c1c(O)c(-c2ccc(O)c(O)c2)oc2cc(O)ccc12 [fisetin]
E. coli RecA protein
  activity in RecA ATPase screen: particularly active

## O=c1cc(-c2ccc(Oc3c(O)cc4oc(-c5ccc(O)cc5)cc(=O)c4c3O)cc2)oc2cc(O)cc(O)c12 [hinokiflavone]
[1]
  fewer CFUs in presence of hinokiflavone as compared with its absence: approximately 100 fold
S. aureus cells; culture grown 0 days in 4×MIC ciprofloxacin, +Hinokiflavone (25 μg/ml)
  Number of Wells in which Growth Observed in Presence of Ciprofloxacin at 4 × MIC: 0
S. aureus cells; culture grown 1 day in 4×MIC ciprofloxacin, +Hinokiflavone (25 μg/ml)
  Number of Wells in which Growth Observed in Presence of Ciprofloxacin at 4 × MIC: 0
S. aureus cells; culture grown 5 days in 4×MIC ciprofloxacin, +Hinokiflavone (25 μg/ml)
  Number of Wells in which Growth Observed in Presence of Ciprofloxacin at 4 × MIC: 0
S. aureus cells; culture grown 6 days in 4×MIC ciprofloxacin, +Hinokiflavone (25 μg/ml)
  Number of Wells in which Growth Observed in Presence of Ciprofloxacin at 4 × MIC: 0
S. aureus cells; culture grown 7 days in 4×MIC ciprofloxacin, +Hinokiflavone (25 μg/ml)
  Number of Wells in which Growth Observed in Presence of Ciprofloxacin at 4 × MIC: 3
S. aureus cells; culture grown 10 days in 4×MIC ciprofloxacin, +Hinokiflavone (25 μg/ml)
  Number of Wells in which Growth Observed in Presence of Ciprofloxacin at 4 × MIC: 4

## COc1cc(-c2oc3cc(O)cc(O)c3c(=O)c2O)ccc1O [isorhamnetin]
E. coli RecA protein
  activity in RecA ATPase screen: particularly active

## O=c1c(O)c(-c2ccc(O)cc2)oc2cc(O)cc(O)c12 [kaempferol]
E. coli RecA protein
  activity in RecA ATPase screen: particularly active

## O=C(c1ccc(O)c(O)c1)c1c(O)cc(O)cc1O [maclurin]
E. coli RecA protein
  activity in RecA ATPase screen: particularly active

## O=c1c(O)c(-c2ccc(O)cc2O)oc2cc(O)cc(O)c12 [morin]
E. coli RecA protein
  activity in RecA ATPase screen: particularly active

## O=c1c(O)c(-c2ccc(O)c(O)c2)oc2cc(O)c(O)c(O)c12 [quercetagetin]
E. coli RecA protein
  activity in RecA ATPase screen: particularly active

## O.O.O=c1c(O)c(-c2ccc(O)c(O)c2)oc2cc(O)cc(O)c12 [quercetin dihydrate]
E. coli RecA protein
  activity in RecA ATPase screen: particularly active

## O=c1c(O)cc([C@H]2Oc3cc(O)cc(O)c3C[C@H]2O)cc2c([C@H]3Oc4cc(O)cc(O)c4C[C@H]3O)cc(O)c(O)c12 [theaflavin]
E. coli RecA protein
  activity in RecA ATPase screen: particularly active

Reference: US9155792B2, “RecA inhibitors with antibiotic activity, compositions and methods of use” (Trustees of Boston University, priority 2006, dated 2015)
